A short description of series [1]: Bulk density, tapped density and Carr index of primidone and primidone granules. The series is classed as physicochemical. The following applies: for Carr Index: percent compressibility from tapped and bulk density. From the text:
“Carr index” as used herein is defined as the percent compressibility, that is a percentage ratio of the difference between tapped bulk density and initial bulk density to tapped bulk density.

For series [2] the following is noted: cited from earlier work.

Values after ≈ are worked out from the molar mass of the structure shown.

As to `CCC1(c2ccccc2)C(=O)NCNC1=O` [Primidone Particle size D90 307 μm], in series [1], the “Bulk Density, (Db)” value amounted to 0.850 g/mL; the “Tapped density (Dt)” value was 0.905 g/mL; the “Carr Index” value is reported as 6.1%.

As to `CCC1(c2ccccc2)C(=O)NCNC1=O` [Primidone, 5-ethyldihydro-5-phenyl-4,6 (1H, 5H pyrimidinedione)], the solubility in water in series [2] is 600 µg/mL (≈ 2750 µM).

Take `CCC1(c2ccccc2)C(=O)NCNC1=O` [Primidone Particle size D90 7.1 μm]: in series [1], the “Bulk Density, (Db)” value stood at 0.221 g/mL; the “Tapped density (Dt)” value came to 0.307 g/mL; the “Carr Index” value amounted to 28%.
